# Test results from US5300491A, “Treatment of protozoal infection” (priority 1992, dated 1994).
# Bridge positions count the residues as written; N and C are the ends. Square brackets hold non-standard residues; d marks the D form. Peptide text beside a SMILES is read from it. * marks the point of attachment. Ileψ(thiazoline)Cys = CC[C@H](C)[C@H](N)C1=N[C@H](C(=O)*)CS1; dOrn = NCCC[C@@H](N)C(=O)O
# How the values were obtained:
# [1] = tested on: E. histolytica axenic cultures (NIH:200); experiment: Axenic culture study of E. histolytica (NIH:200), cell number reduction; format: cell-based, Entamoeba histolytica
# Protocol: Axenic cultures are isolates of amoeba which have been adapted for growth in the absence of bacteria, i.e. they comprise sterile cultures. E. histolytica axenic cultures (NIH:200) were maintained according to the method of Diamond, J. Parasitol. 54, 1047-56 (1968) in TP-S-1 medium modified by replacing the vitamin solution with 2.5% NCTC 135. […] Amoebae were harvested by cooling tubes at 4° C. for 20 minutes in an ice-bath prior to centrifugation at 1,000 rpm for 8 minutes at 4° C. Assays were performed over 36-48 hours, rather than the 24 hour period used for xenic cultures, due to the more extended division time of axenic cultures. All assays were performed in triplicate.
# Trichomonas vaginalis = Trichomonas vaginalis assay (MLC, aerobic and anaerobic); format: cell-based; details: for MLCs: span over metronidazole-sensitive isolates, converted from IU/ml
# Protocol: All isolates were treated with either bacitracin or zinc bacitracin.
# Prior to being diluted with the medium, the bacitracins were initially solubilized in water to 250 mg/ml. The zinc salt was solubilized in acidified water (60 μl HC1/ml). Duplicate plates of each isolate were prepared. one set of plates was exposed to an aerobic environment; and, the second set was exposed to an anaerobic environment. An Oxoid HP 11 anaerobic gas chamber and BR 38 gas generating kit were used to produce the anaerobic environment.
# Tritrichomonas foetus = Tritrichomonas foetus assay (MLC); format: cell-based
# Protocol: Duplicate plates of each isolate were prepared. One set of plates was exposed to an aerobic environment; and, the second set was exposed to an anaerobic environment. An Oxoid HP 11 anaerobic gas chamber and BR 38 gas generating kit were used to produce the anaerobic environment. […]
# Micrococcus uteus = details: as obtained from Apothekernes Laboratorium A.S; cited from earlier work
# [2] = isolate 1031, metronidazole-sensitive, aerobic
# [3] = isolate 1031, metronidazole-sensitive, anaerobic
# [4] = isolate 1043, metronidazole-sensitive, aerobic
# [5] = isolate 1043, metronidazole-sensitive, anaerobic
# [6] = isolate 1044, metronidazole-sensitive, aerobic
# [7] = isolate 1044, metronidazole-sensitive, anaerobic
# [8] = isolate 1064, metronidazole-sensitive, aerobic
# [9] = isolate 1064, metronidazole-sensitive, anaerobic
# [10] = isolate 1065, metronidazole-sensitive, aerobic
# [11] = isolate 1065, metronidazole-sensitive, anaerobic
# [12] = isolate 1165, metronidazole-sensitive, aerobic
# [13] = isolate 1165, metronidazole-sensitive, anaerobic
# [14] = isolate 1910, metronidazole-sensitive, aerobic
# [15] = isolate 1910, metronidazole-sensitive, anaerobic
# [16] = isolate 6950, metronidazole-sensitive, aerobic
# [17] = isolate 6950, metronidazole-sensitive, anaerobic
# [18] = isolate 89532.2, metronidazole-insensitive, aerobic
# [19] = isolate 89532.2, metronidazole-insensitive, anaerobic
# [20] = isolate 90576, metronidazole-insensitive, aerobic
# [21] = isolate 90576, metronidazole-insensitive, anaerobic
# [22] = isolate CDC85, metronidazole-insensitive, aerobic
# [23] = isolate CDC85, metronidazole-insensitive, anaerobic
# [24] = isolate IR78, metronidazole-insensitive, aerobic
# [25] = isolate IR78, metronidazole-insensitive, anaerobic
# [26] = isolate PHLS289, metronidazole-insensitive, aerobic
# [27] = isolate PHLS289, metronidazole-insensitive, anaerobic
# [28] = isolate STH-1, metronidazole-insensitive, aerobic
# [29] = isolate STH-1, metronidazole-insensitive, anaerobic
# [30] = isolate UCH-1, metronidazole-sensitive, aerobic
# [31] = isolate UCH-1, metronidazole-sensitive, anaerobic
# [32] = isolate UCH-2, metronidazole-sensitive, aerobic
# [33] = isolate UCH-2, metronidazole-sensitive, anaerobic
# [34] = isolate UCH-M1, metronidazole-sensitive, aerobic
# [35] = isolate UCH-M1, metronidazole-sensitive, anaerobic
# [36] = isolate UOB-1, metronidazole-sensitive, aerobic
# [37] = isolate UOB-1, metronidazole-sensitive, anaerobic
compound,measurement,setting,value
Zinc bacitracin,Cell number reduction compared to controls,"[1]; axenic culture, 1 mg/ml",68.3%
same,Cell number reduction compared to controls,"[1]; axenic culture, 2 mg/ml",90.6%
same,Cell number reduction compared to controls,"[1]; axenic culture, 5 mg/ml",> 99.5%
same,concentration required for lethality in axenic as opposed to xenic amoeba cultures,[1]; axenic versus xenic,2-3 times
same,MLC,Trichomonas vaginalis; [2],250 IU/ml
same,MLC,Trichomonas vaginalis; [3],350 IU/ml
same,MLC,Trichomonas vaginalis; [4],350 IU/ml
same,MLC,Trichomonas vaginalis; [5],350 IU/ml
same,MLC,Trichomonas vaginalis; [6],250 IU/ml
same,MLC,Trichomonas vaginalis; [7],300 IU/ml
same,MLC,Trichomonas vaginalis; [8],250 IU/ml
same,MLC,Trichomonas vaginalis; [9],300 IU/ml
same,MLC,Trichomonas vaginalis; [10],300 IU/ml
same,MLC,Trichomonas vaginalis; [11],400 IU/ml
same,MLC,Trichomonas vaginalis; [12],350 IU/ml
same,MLC,Trichomonas vaginalis; [13],250 IU/ml
same,MLC,Trichomonas vaginalis; [14],400 IU/ml
same,MLC,Trichomonas vaginalis; [15],350 IU/ml
same,MLC,Trichomonas vaginalis; [16],350 IU/ml
same,MLC,Trichomonas vaginalis; [17],400 IU/ml
same,MLC,Trichomonas vaginalis; [18],350 IU/ml
same,MLC,Trichomonas vaginalis; [19],350 IU/ml
same,MLC,Trichomonas vaginalis; [20],250 IU/ml
same,MLC,Trichomonas vaginalis; [21],350 IU/ml
same,MLC,Trichomonas vaginalis; [22],350 IU/ml
same,MLC,Trichomonas vaginalis; [23],350 IU/ml
same,MLC,Trichomonas vaginalis; [24],300 IU/ml
same,MLC,Trichomonas vaginalis; [25],300 IU/ml
same,MLC,Trichomonas vaginalis; [26],200 IU/ml
same,MLC,Trichomonas vaginalis; [27],250 IU/ml
same,MLC,Trichomonas vaginalis; [28],250 IU/ml
same,MLC,Trichomonas vaginalis; [29],350 IU/ml
same,MLC,Trichomonas vaginalis; [30],400 IU/ml
same,MLC,Trichomonas vaginalis; [31],400 IU/ml
same,MLC,Trichomonas vaginalis; [32],350 IU/ml
same,MLC,Trichomonas vaginalis; [33],400 IU/ml
same,MLC,Trichomonas vaginalis; [34],250 IU/ml
same,MLC,Trichomonas vaginalis; [35],250 IU/ml
same,MLC,Trichomonas vaginalis; [36],400 IU/ml
same,MLC,Trichomonas vaginalis; [37],400 IU/ml
same,MLCs,Trichomonas vaginalis,3.13 to 5.47 mg/mL
same,MLC,"Tritrichomonas foetus; isolate 121, aerobic",6 mg/mL
same,MLC,"Tritrichomonas foetus; isolate 121, anaerobic",6 mg/mL
same,MLC,"Tritrichomonas foetus; isolate 138, aerobic",6 mg/mL
same,MLC,"Tritrichomonas foetus; isolate 138, anaerobic",6 mg/mL
same,MLC,"Tritrichomonas foetus; isolate ATCC 30166, aerobic",6 mg/mL
same,MLC,"Tritrichomonas foetus; isolate ATCC 30166, anaerobic",6 mg/mL
same,MLC,"Tritrichomonas foetus; isolate FT.3741, aerobic",6 mg/mL
same,MLC,"Tritrichomonas foetus; isolate FT.3741, anaerobic",5 mg/mL
same,MLC,"Tritrichomonas foetus; isolate S10, aerobic",6 mg/mL
same,MLC,"Tritrichomonas foetus; isolate S10, anaerobic",6 mg/mL
same,MLC,"Tritrichomonas foetus; isolate TF.7, aerobic",6 mg/mL
same,MLC,"Tritrichomonas foetus; isolate TF.7, anaerobic",6 mg/mL
same,Potency of the material used,Micrococcus uteus,65 I.U./mg
"CC[C@H](C)[C@H](N)C1=N[C@H](C(=O)N[C@@H](CC(C)C)C(=O)N[C@H](CCC(=O)O)C(=O)N[C@H](C(=O)N[C@H]2CCCCNC(=O)[C@H](CC(N)=O)NC(=O)[C@@H](CC(=O)O)NC(=O)[C@H](Cc3cnc[nH]3)NC(=O)[C@@H](Cc3ccccc3)NC(=O)[C@H]([C@@H](C)CC)NC(=O)[C@@H](CCCN)NC2=O)[C@@H](C)CC)CS1 [Bacitracin, reference compound] ({Ileψ(thiazoline)Cys}-L[dE]IK[dOrn]I[dF]H[dD]N; lactam 4-C)",Cell number reduction compared to controls,"[1]; axenic culture, 2.5 mg/ml",76.4%
same,Cell number reduction compared to controls,"[1]; axenic culture, 5 mg/ml",92.3%
same,Cell number reduction compared to controls,"[1]; axenic culture, 10 mg/ml",97.7%
same,Cell number reduction compared to controls,"[1]; axenic culture, 15 mg/ml",99.9%
same,killing of amoeba,"[1]; axenic culture, 20 mg/ml, 48 hours",All amoeba were killed
same,MLC,Trichomonas vaginalis; [2],2000 IU/ml
same,MLC,Trichomonas vaginalis; [3],2000 IU/ml
same,MLC,Trichomonas vaginalis; [4],2500 IU/ml
same,MLC,Trichomonas vaginalis; [5],2000 IU/ml
same,MLC,Trichomonas vaginalis; [6],2000 IU/ml
same,MLC,Trichomonas vaginalis; [7],2000 IU/ml
same,MLC,Trichomonas vaginalis; [8],1500 IU/ml
same,MLC,Trichomonas vaginalis; [9],1500 IU/ml
same,MLC,Trichomonas vaginalis; [10],2000 IU/ml
same,MLC,Trichomonas vaginalis; [11],2000 IU/ml
same,MLC,Trichomonas vaginalis; [12],2000 IU/ml
same,MLC,Trichomonas vaginalis; [13],2000 IU/ml
same,MLC,Trichomonas vaginalis; [14],2000 IU/ml
same,MLC,Trichomonas vaginalis; [15],2000 IU/ml
same,MLC,Trichomonas vaginalis; [16],2000 IU/ml
same,MLC,Trichomonas vaginalis; [17],2000 IU/ml
same,MLC,Trichomonas vaginalis; [18],2000 IU/ml
same,MLC,Trichomonas vaginalis; [19],2000 IU/ml
same,MLC,Trichomonas vaginalis; [20],2500 IU/ml
same,MLC,Trichomonas vaginalis; [21],2000 IU/ml
same,MLC,Trichomonas vaginalis; [22],1500 IU/ml
same,MLC,Trichomonas vaginalis; [23],2000 IU/ml
same,MLC,Trichomonas vaginalis; [24],2000 IU/ml
same,MLC,Trichomonas vaginalis; [25],2000 IU/ml
same,MLC,Trichomonas vaginalis; [26],2000 IU/ml
same,MLC,Trichomonas vaginalis; [27],2500 IU/ml
same,MLC,Trichomonas vaginalis; [28],2000 IU/ml
same,MLC,Trichomonas vaginalis; [29],2000 IU/ml
same,MLC,Trichomonas vaginalis; [30],2000 IU/ml
same,MLC,Trichomonas vaginalis; [31],2000 IU/ml
same,MLC,Trichomonas vaginalis; [32],2500 IU/ml
same,MLC,Trichomonas vaginalis; [33],2500 IU/ml
same,MLC,Trichomonas vaginalis; [34],2000 IU/ml
same,MLC,Trichomonas vaginalis; [35],2000 IU/ml
same,MLC,Trichomonas vaginalis; [36],2000 IU/ml
same,MLC,Trichomonas vaginalis; [37],2000 IU/ml
same,MLCs,Trichomonas vaginalis,21.44-35.71 mg/mi
same,MLC,"Tritrichomonas foetus; isolate 121, aerobic",28 mg/mL
same,MLC,"Tritrichomonas foetus; isolate 121, anaerobic",28 mg/mL
same,MLC,"Tritrichomonas foetus; isolate 138, aerobic",28 mg/mL
same,MLC,"Tritrichomonas foetus; isolate 138, anaerobic",28 mg/mL
same,MLC,"Tritrichomonas foetus; isolate ATCC 30166, aerobic",28 mg/mL
same,MLC,"Tritrichomonas foetus; isolate ATCC 30166, anaerobic",28 mg/mL
same,MLC,"Tritrichomonas foetus; isolate FT.3741, aerobic",28 mg/mL
same,MLC,"Tritrichomonas foetus; isolate FT.3741, anaerobic",28 mg/mL
same,MLC,"Tritrichomonas foetus; isolate S10, aerobic",28 mg/mL
same,MLC,"Tritrichomonas foetus; isolate S10, anaerobic",28 mg/mL
same,MLC,"Tritrichomonas foetus; isolate TF.7, aerobic",28 mg/mL
same,MLC,"Tritrichomonas foetus; isolate TF.7, anaerobic",28 mg/mL
same,Potency of the material used,Micrococcus uteus,70 I.U./mg
